Converted amounts (≈) assume the structure as drawn.
Tests used:
Format in all cases: cell-based
C. albicans SC5314 = experiment: Minimal inhibitory and fungicidal concentrations (broth microdilution, CLSI M27-A3 modified); conditions: Candida albicans, 28 °C
Procedure: (§1) Experiments were performed according to the Clinical and Laboratory Standards Institute (2008), 3rd ed. M27-A3 [51], with modifications described previously. Briefly, MICs were determined by serially diluting ILs in YPD medium in sterile 96-well plates (Sarstedt) and inoculating with fungal suspensions (final OD600 per well = 0.01). After incubation (48 h; 28 °C), the OD600 was measured (ASYS UVM 340 Biogenet). […] Each well was then replated on YPD agar and incubated for 5 days at 28 °C.

C. glabrata ATCC90030 = experiment: as above; conditions: Nakaseomyces glabratus, 28 °C
Procedure: as §1

C. krusei ATCC6258 = experiment: as above; conditions: Pichia kudriavzevii, 28 °C
Procedure: as §1

C. parapsilosis CBS10947 = experiment: as above; conditions: Lodderomyces parapsilosis, 28 °C
Procedure: as §1

C. albicans [1] = experiment: Detachment of adherent cells from polystyrene (crystal violet); conditions: C. albicans on polystyrene, 2 h treatment; highest concentration (4 × MIC)
Procedure: (§2) Thus, for the evaluation of ILs on fungal adhesion, higher concentrations were used, corresponding to 1, 2 and 4 times the MIC90 values (Figure 1).
(§3) Figure 1 Detachment of adherent Candida spp. cells after 2 h incubation on polystyrene surfaces by ionic liquids (ILs) (A) or amphotericin B (AMB) (B) (means ± SD; n = 3). Results are presented as percentage of adherent cells relative to untreated controls (100% adhesion). Statistical analysis of detachment at each concentration was performed towards corresponding control experiments (fungi untreated by ILs or AMB = 100% adhesion) (*, p < 0.05 and **, p < 0.01).
(§4) Post-adherence treatment with ILs was performed in a similar manner to that described previously by our team. Candida spp. suspensions were prepared by centrifuging YPD-grown cultures and resuspending fungal mass in PBS to an OD600 = 0.6. Sterile 96-well plates were inoculated with the prepared suspensions and incubated for 2 h at 37 °C to induce fungal adhesion. Afterwards, adherent cells were washed with PBS to remove planktonic cells and treated with ILs (concentrations equivalent to 1, 2 or 4 × MIC90 for each fungi) for 2 h at 37 °C. Then, each well was washed with PBS and adherent cells were fixed with 0.1% CV solution for 5 min, and washed with PBS. Cells were then treated with a solution of isopropanol 0.04 N HCL with 0.1% SDS to permeabilize adherent cells and release the CV dye. The absorbance of CV was measured at 590 nm (ASYS UVM 340 Biogenet). The percentage of cells that were removed was determined in comparison to adherent cells treated with PBS only (designated 100% adhesion).

C. glabrata [2] = experiment: as above; conditions: C. glabrata on polystyrene, 2 h treatment; highest concentration (4 × MIC)
Procedure: as §2, §3, §4

C. krusei [3] = experiment: as above; conditions: C. krusei on polystyrene, 2 h treatment; highest concentration (4 × MIC)
Procedure: as §2, §3, §4

C. parapsilosis [4] = experiment: as above; conditions: C. parapsilosis on polystyrene, 2 h treatment; highest concentration (4 × MIC)
Procedure: as §2, §3, §4

C. albicans [5] = experiment: Plasma membrane permeabilization (propidium iodide staining); conditions: 2 h treatment at MIC90, PI staining, mean ± SD, n = 3
Procedure: (§5) We tested ILs for their activity in permeabilizing fungi plasma membranes (PMs), by treating cells with concentrations of ILs corresponding to their MIC90 values (Table 2).
(§6) The assessment of PM permeability was performed as described previously, with modifications. Briefly, 3 mL of Candida spp. cell suspensions (OD600 = 0.1) in PBS were mixed with ILs (concentrations equivalent to MIC90 against each fungi). Samples were incubated for 2 h at 37 °C, washed with PBS and stained with PI to the final dye concentration of 6 × 10^−6 M for 5 min. Then, cell suspensions were washed with PBS and observed under the Zeiss Axio Imager A2 microscope equipped with the Zeiss Axiocam 503 mono microscope camera and Zeiss HBO100 mercury lamp. The percentage of permeabilized cells was evaluated by counting PI positive cells out of one hundred in three independent repetitions for each experiment.

C. glabrata [6] = experiment: as above; conditions: 2 h treatment at MIC90, PI staining, mean ± SD, n = 3
Procedure: as §5, §6

C. krusei [7] = experiment: as above; conditions: 2 h treatment at MIC90, PI staining, mean ± SD, n = 3
Procedure: as §5, §6

C. parapsilosis [8] = experiment: as above; conditions: 2 h treatment at MIC90, PI staining, mean ± SD, n = 3
Procedure: as §5, §6

sheep erythroid PMs = experiment: Hemolysis assay; conditions: AMB conc. 0.25 µM; sheep RBCs; 1% SDS = 100% hemolysis
Procedure: To examine any possible toxic effect towards animal cells, ILs were tested for their lytic activity on sheep erythroid PMs, in comparison to AMB (Table 3). For this part of study, higher concentrations were selected, corresponding to MFC values of tested fungi (12.5; 25 and 50 µM in case of ILs, and 0.25; 0.5 and 1 µM in case of AMB, Table 1). The compounds were ranked in terms of hemolytic activity as follows: 1a > 1b > 2a. IL with alkoxymethyl chain (2a) produced <5% hemolysis, regardless of the concentration used. Compounds with alkyl substituents (1a and 1b) were more hemolytic in 12.5 than in 25 µM concentrations, and in the highest concentration (50 µM), both compounds produced >10% and >5% hemolysis, respectively.
ILs were tested for hemolytic activity, as described previously. Briefly, 5 mL of fresh sheep blood was centrifuged (2000 rpm, 15 min), washed with PBS and resuspended in PBS to achieve hematocrit level of 50%. Red blood cells (RBCs) were treated with ILs (concentrations = 12.5, 25 and 50 µM) for 2 h at 37 °C. Afterwards, RBCs were centrifuged (2000 rpm, 5 min) and the absorbance of the supernatant was measured at 540 nm (ASYS UVM 340 Biogenet). The percentage of hemolysis was determined in comparison to the hemoglobin absorbance released by a 1% SDS solution (100% hemolysis).

[9] = 120 h, replated on YPD agar, 5 days, read-out: Minimal fungicidal concentration (MFC)
[10] = ≥90% growth inhibition, 48 h, YPD, read-out: Minimal inhibitory concentration (MIC90)

Compound: C[C@@H]1[C@H](O)[C@@H](C)/C=C/C=C/C=C/C=C/C=C/C=C/C=C/[C@H](O[C@@H]2O[C@H](C)[C@@H](O)[C@H](N)[C@@H]2O)C[C@@H]2O[C@](O)(C[C@@H](O)C[C@@H](O)[C@H](O)CC[C@@H](O)C[C@@H](O)CC(=O)O[C@H]1C)C[C@H](O)[C@H]2C(=O)O [AMB, amphotericin B, reference compound]
- MFC (C. albicans SC5314; [9]): 0.5 µM (≈ 0.462 µg/mL)
- MIC90 (C. albicans SC5314; [10]): 0.25 µM (≈ 0.231 µg/mL)
- MFC (C. glabrata ATCC90030; [9]): 0.5 µM (≈ 0.462 µg/mL)
- MIC90 (C. glabrata ATCC90030; [10]): 0.25 µM (≈ 0.231 µg/mL)
- MFC (C. krusei ATCC6258; [9]): 1 µM (≈ 0.924 µg/mL)
- MIC90 (C. krusei ATCC6258; [10]): 0.5 µM (≈ 0.462 µg/mL)
- MFC (C. parapsilosis CBS10947; [9]): 0.5 µM (≈ 0.462 µg/mL)
- MIC90 (C. parapsilosis CBS10947; [10]): 0.25 µM (≈ 0.231 µg/mL)
- Reduction of adhesion (C. albicans [1]): ~ 27%
- Reduction of adhesion (C. glabrata [2]): ~ 15%
- Reduction of adhesion (C. krusei [3]): ~ 20%
- Reduction of adhesion (C. parapsilosis [4]): ~ 20%
- Percentage of cells with permeabilized PMs (C. albicans [5]): 37.3 ± 4.17 %
- Percentage of cells with permeabilized PMs (C. glabrata [6]): 43.2 ± 2.15 %
- Percentage of cells with permeabilized PMs (C. krusei [7]): 38.2 ± 10.7 %
- Percentage of cells with permeabilized PMs (C. parapsilosis [8]): 32.38 ± 3.15 %
- Hemolytic activity (sheep erythroid PMs): 86.7 ± 0.43 %

Reference: PMC8304783, “Antiadhesive Properties of Imidazolium Ionic Liquids Based on (−)-Menthol Against Candida spp” (International Journal of Molecular Sciences, 2021)
